Broadly, the IC50 is the concentration that gives 50% inhibition.

Counter-ions that a name gives are not always drawn.

The assay has as its target T1, human IKK-2 (rhIKK-2 homodimer) (Homo sapiens, UniProt O14920).
T1 construct: FLAG (DYKDDDDKD) (C); made in house; host or cells: insect cells (baculovirus, pFastBac)
T1 sequence (O14920 1-756): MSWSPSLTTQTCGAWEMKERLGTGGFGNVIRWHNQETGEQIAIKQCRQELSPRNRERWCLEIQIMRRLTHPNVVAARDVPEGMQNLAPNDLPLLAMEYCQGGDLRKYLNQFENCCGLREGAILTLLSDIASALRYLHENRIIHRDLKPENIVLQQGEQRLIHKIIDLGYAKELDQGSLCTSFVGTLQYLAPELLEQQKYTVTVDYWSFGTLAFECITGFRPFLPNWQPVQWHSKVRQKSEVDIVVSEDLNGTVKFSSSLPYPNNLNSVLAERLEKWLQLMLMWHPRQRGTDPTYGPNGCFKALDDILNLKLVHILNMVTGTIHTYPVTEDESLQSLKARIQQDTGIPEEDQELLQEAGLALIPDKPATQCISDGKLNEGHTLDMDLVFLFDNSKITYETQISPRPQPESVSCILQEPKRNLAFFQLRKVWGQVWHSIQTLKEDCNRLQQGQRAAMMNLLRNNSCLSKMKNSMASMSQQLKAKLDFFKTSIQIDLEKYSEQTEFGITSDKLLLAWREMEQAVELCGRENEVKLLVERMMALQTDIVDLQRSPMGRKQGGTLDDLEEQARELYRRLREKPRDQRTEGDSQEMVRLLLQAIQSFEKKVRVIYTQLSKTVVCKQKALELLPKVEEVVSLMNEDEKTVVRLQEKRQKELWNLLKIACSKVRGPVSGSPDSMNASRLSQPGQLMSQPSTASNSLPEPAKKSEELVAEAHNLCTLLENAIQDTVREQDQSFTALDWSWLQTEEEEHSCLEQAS
The assay is described as follows: IKK-2 Resin Enzyme Assay (Human IKK-2 Enzyme Assay). To be noted: human IKK-2, resin enzyme assay; read-out: IC50 (μM) hIKK-2. The class given is biochemical. The method in brief: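 C-terminally FLAG-tagged human IKK-2 homodimer, baculovirus-expressed in insect cells and anti-FLAG purified. Reaction mix: 5 μM biotinylated IκBα peptide (Ser32/Ser36 region), 1 μM ATP with [γ-33P]ATP, 2 mM MgCl2, 2 mM MnCl2, 10 mM NaF, 1 mM DTT, 25 mM HEPES pH 7.6. Incubated 30 min at 25 °C; IC50 derived.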

`NC(=O)Nc1cn(-c2ccc(-c3ccccc3O)cc2F)nc1C(N)=O` [Example 249, 4-[(aminocarbonyl)amino]-1-(3-fluoro-2′-hydroxy-1,1′-biphenyl-4-yl)-1H-pyrazole-3-carboxamide]: the half-maximal inhibitory concentration (IC50) came out at 0.892 µM.

Turning to `NC(=O)Nc1cn(-c2cccc(-c3ccnc(Cl)c3)c2)nc1C(N)=O` [Example 13, 4-[(aminocarbonyl)amino]-1-[3-(2-chloropyridin-4-yl)phenyl]-1H-pyrazole-3-carboxamide], the IC50 turned out to be 0.38 µM.

`NC(=O)Nc1cn(-c2cccc(-c3ccc(CO)cc3)c2)nc1C(N)=O` [Example 48, 4-[(aminocarbonyl)amino]-1-[4′-(hydroxymethyl)-1,1′-biphenyl-3-yl]-1H-pyrazole-3-carboxamide]: the IC50 worked out at 1.04 µM.

With `CSc1ccc(-c2ccc(-n3cc(C(N)=O)c(NC(N)=O)n3)cc2)cc1` [Example 119], the IC50 stood at 0.664 µM.

`NC(=O)Nc1cn(-c2ccc(S(=O)(=O)c3ccc(F)cc3)c(Cl)c2)nc1C(N)=O` [Example 222, 4-[(aminocarbonyl)amino]-1-{3-chloro-4-[(4-fluorophenyl)sulfonyl]phenyl}-1H-pyrazole-3-carboxamide]: the IC50 was above 20 µM.

With `NC(=O)Nc1cn(-c2ccc(-c3ccccc3O)cc2)nc1C(N)=O` [Example 23, 4-[(aminocarbonyl)amino]-1-(2′-hydroxy-1,1′-biphenyl-4-yl)-1H-pyrazole-3-carboxamide], the IC50 was determined as 1.64 µM.

`CCOC(=O)c1cccc(-c2ccc(-n3cc(NC(N)=O)c(C(N)=O)n3)cc2)c1` [Example 144, ethyl 4′-{3-(aminocarbonyl)-4-[(aminocarbonyl)amino]-1H-pyrazol-1-yl}-1,1′-biphenyl-3-carboxylate]: the IC50 turned out to be 5.05 µM.

`CC(=O)OCc1cccc(-c2ccc(-n3cc(NC(N)=O)c(C(N)=O)n3)cc2)c1` [Example 165, 4′-{3-(aminocarbonyl)-4-[(aminocarbonyl)amino]-1H-pyrazol-1-yl}-1,1′-biphenyl-3-yl)methyl acetate]: the IC50 was determined as 5.99 µM.

Consider `CC(C)c1cccc(-c2ccc(-n3cc(C(N)=O)c(NC(N)=O)n3)cc2)c1` [Example 116], for which the IC50 was 11 µM.

For the molecule `COc1ccc(Cl)cc1-c1cccc(-n2cc(NC(N)=O)c(C(N)=O)n2)c1` [Example 365, 4-[(aminocarbonyl)amino]-1-(5′-chloro-2′-methoxy-1,1′-biphenyl-3-yl)-1H-pyrazole-3-carboxamide], the concentration for half-maximal inhibition (IC50) was found to be 11.6 µM.

With `NC(=O)Nc1cn(-c2ccc(-c3cc(F)ccc3OCC(=O)N3CCOCC3)cc2)nc1C(N)=O` [Example 161, 4-[(aminocarbonyl)amino]-1-[5′-fluoro-2′-(2-morpholin-4-yl-2-oxoethoxy)-1,1′-biphenyl-4-yl]-1H-pyrazole-3-carboxamide], the IC50 came out at 1.36 µM.

`NC(=O)Nc1cn(-c2ccc(-c3cccc(O)c3)c(F)c2)nc1C(N)=O` [Example 226, 4-[(aminocarbonyl)amino]-1-(2-fluoro-3′-hydroxy-1,1′-biphenyl-4-yl)-1H-pyrazole-3-carboxamide]: the concentration for half-maximal inhibition (IC50) turned out to be 1.06 µM.

For `CCCCc1ccc(-c2cccc(-n3cc(NC(N)=O)c(C(N)=O)n3)c2)cc1` [Example 364, 4-[(aminocarbonyl)amino]-1-(4′-butyl-1,1′-biphenyl-3-yl)-1H-pyrazole-3-carboxamide], the IC50 worked out at 16.2 µM.

For `NC(=O)Nc1cn(-c2ccc(Sc3ccc(F)cc3)cc2)nc1C(N)=O` [Example 196, 1-(1-(4-(4-fluorophenylthio)phenyl)-3-carbamoyl-1H-pyrazol-4-yl)urea], the IC50 was 0.718 µM.

With `Cc1cccc(-c2cccc(-n3cc(NC(N)=O)c(C(N)=O)n3)c2)c1` [Example 340, 4-[(aminocarbonyl)amino]-1-(3′-methyl-1,1′-biphenyl-3-yl)-1H-pyrazole-3-carboxamide], the concentration for half-maximal inhibition (IC50) was above 20 µM.

Consider `CSc1cccc(-c2cccc(-n3cc(NC(N)=O)c(C(N)=O)n3)c2)c1` [Example 357, 4-[(aminocarbonyl)amino]-1-[3′-(methylthio)-1,1′-biphenyl-3-yl]-1H-pyrazole-3-carboxamide], for which the IC50 is above 20 µM.

As to `N#CCOc1ccccc1-c1ccc(-n2cc(NC(N)=O)c(C(N)=O)n2)cc1` [Example 167, 4-[(aminocarbonyl)amino]-1-[2′-(cyanomethoxy)-1,1′-biphenyl-4-yl]-1H-pyrazole-3-carboxamide], the IC50 turned out to be 0.5 µM.

With `NC(=O)Nc1cn(-c2ccc(Sc3ccccc3F)cc2)nc1C(N)=O` [Example 190, 1-(1-(4-(2-fluorophenylthio)phenyl)-3-carbamoyl-1H-pyrazol-4-yl)urea], the concentration for half-maximal inhibition (IC50) amounted to 0.831 µM.

Consider `COc1ccc(-n2cc(NC(N)=O)c(C(N)=O)n2)cc1` [Example 10, 4-[(aminocarbonyl)amino]-1-(4-methoxyphenyl)-1H-pyrazole-3-carboxamide trifluoroacetate], for which the IC50 was found to be 2.91 µM.

Consider `NC(=O)Nc1cn(-c2ccc([S+]([O-])c3ccc(F)cc3)cc2)nc1C(N)=O` (stereo not drawn) [Example 200, 1-(1-(4-(4-fluorophenylsulfinyl)phenyl)-3-carbamoyl-1H-pyrazol-4-yl)urea], for which the IC50 stood at 0.326 µM.

As for `NC(=O)Nc1cn(-c2ccc(B(O)O)cc2)nc1C(N)=O` [Example 337, 4-{3-(aminocarbonyl)-4-[(aminocarbonyl)amino]-1H-pyrazol-1-yl}phenylboronic acid], the IC50 came out at 0.75 µM.

In the case of `NC(=O)Nc1cn(-c2ccc(-c3cccnc3)cc2)nc1C(N)=O` [Example 21, 4-[(aminocarbonyl)amino]-1-(4-pyridin-3-ylphenyl)-1H-pyrazole-3-carboxamide], the IC50 is 2.86 µM.

As for `N#CCCNC(=O)c1cccc(-c2cccc(-n3cc(NC(N)=O)c(C(N)=O)n3)c2)c1` [Example 82, 4-[(aminocarbonyl)amino]-1-(3′-{[(2-cyanoethyl)amino]carbonyl}-1,1′-biphenyl-3-yl)-1H-pyrazole-3-carboxamide], the half-inhibitory concentration (IC50) is 1.19 µM.

In the case of `NC(=O)Nc1cn(-c2ccc(I)c(Cl)c2)nc1C(N)=O` [Example 6, 4-[(aminocarbonyl)amino]-1-(3-chloro-4-iodophenyl)-1H-pyrazole-3-carboxamide], the IC50 turned out to be 0.546 µM.

`NC(=O)Nc1cn(-c2cccc(/C=C/c3ccccc3)c2)nc1C(N)=O` [Example 67, 4-[(aminocarbonyl)amino]-1-{3-[(E)-2-phenylvinyl]phenyl}-1H-pyrazole-3-carboxamide]: the IC50 came out at 5.24 µM.

On to `NC(=O)Nc1cn(-c2ccc(-c3ccccc3O)c(F)c2)nc1C(N)=O` [Example 261, 4-[(aminocarbonyl)amino]-1-(2-fluoro-2′-hydroxy-1,1′-biphenyl-4-yl)-1H-pyrazole-3-carboxamide], for which the 50% inhibitory concentration (IC50) was found to be 1.18 µM.

For the molecule `CNC(=O)Nc1cn(-c2ccc(I)cc2)nc1C(N)=O` [Example 17, 1-(4-iodophenyl)-4-{[(methylamino)carbonyl]amino}-1H-pyrazole-3-carboxamide], the IC50 worked out at 1.72 µM.

With `NC(=O)Nc1cn(-c2ccc(S(N)(=O)=O)cc2)nc1C(N)=O` [Example 301, 4-[(aminocarbonyl)amino]-1-[4-(aminosulfonyl)phenyl]-1H-pyrazole-3-carboxamide], the IC50 was 0.123 µM.

`NC(=O)Nc1cn(-c2cccc(-c3cncnc3)c2)nc1C(N)=O` [Example 66, 4-[(aminocarbonyl)amino]-1-(3-pyrimidin-5-ylphenyl)-1H-pyrazole-3-carboxamide]: the half-maximal inhibitory concentration (IC50) is 5.2 µM.

For the molecule `CCNC(=O)COc1cccc(-c2ccc(-n3cc(NC(N)=O)c(C(N)=O)n3)cc2)c1` [Example 335, 4-[(aminocarbonyl)amino]-1-{3′-[2-(ethylamino)-2-oxoethoxy]-1, 1′-biphenyl-4-yl}-1H-pyrazole-3-carboxamide], the IC50 turned out to be 0.21 µM.

As to `Cc1cc(-n2cc(NC(N)=O)c(C(N)=O)n2)ccc1-c1ccc(F)cc1OCC(N)=O` [Example 296, 1-(2′-carbamoylmethoxy-4′-fluoro-2-methyl-biphenyl-4-yl)-4-ureido-1H-pyrazole-3-carboxylic acid amide], the IC50 was 0.656 µM.

As to `COc1cccc(-c2ccc(-n3cc(NC(N)=O)c(C(N)=O)n3)cc2)c1F` [Example 120, 4-[(aminooarbonyl)amino]-1-(2′-fluoro-3′-methoxy-1,1′-biphenyl-4-yl)-1H-pyrazole-3-carboxamide], the IC50 is 0.972 µM.

In the case of `NCc1ccc(-c2cccc(-n3cc(NC(N)=O)c(C(N)=O)n3)c2)cc1` [Example 52, 4-[(aminocarbonyl)amino]-1-[4′-(aminomethyl)-1,1′-biphenyl-3-yl]-1H-pyrazole-3-carboxamide], the IC50 was 4.86 µM.

The record behind these values is patent publication US20050197338A1, “Substituted pyrazole urea compounds for the treatment of inflammation” (priority 2003, published 2005).
